Test results as given in PMC8745345, “Hydroxy Pentacyclic Triterpene Acid, Kaempferol, Inhibits the Human 5-Hydroxytryptamine Type 3A Receptor Activity” (International Journal of Molecular Sciences, 2022).
Residue numbers refer to the chain shown, from its start.

Tests used:
[1] = design: method as in PMID 21428901; details: lipophilic, penetrates the lipid bilayer; cited from earlier work
[2] = biological target: T1, human 5-HT3A receptor E209A mutant (Homo sapiens, UniProt P46098, E231A); assay: Two-electrode voltage clamp, I5-HT inhibition, E209A mutant; assay type: cell-based
T1 construct: expressed in transfected cells; host or cells: Xenopus oocytes injected with mutant mRNA
T1 sequence (P46098 24-478 E231A): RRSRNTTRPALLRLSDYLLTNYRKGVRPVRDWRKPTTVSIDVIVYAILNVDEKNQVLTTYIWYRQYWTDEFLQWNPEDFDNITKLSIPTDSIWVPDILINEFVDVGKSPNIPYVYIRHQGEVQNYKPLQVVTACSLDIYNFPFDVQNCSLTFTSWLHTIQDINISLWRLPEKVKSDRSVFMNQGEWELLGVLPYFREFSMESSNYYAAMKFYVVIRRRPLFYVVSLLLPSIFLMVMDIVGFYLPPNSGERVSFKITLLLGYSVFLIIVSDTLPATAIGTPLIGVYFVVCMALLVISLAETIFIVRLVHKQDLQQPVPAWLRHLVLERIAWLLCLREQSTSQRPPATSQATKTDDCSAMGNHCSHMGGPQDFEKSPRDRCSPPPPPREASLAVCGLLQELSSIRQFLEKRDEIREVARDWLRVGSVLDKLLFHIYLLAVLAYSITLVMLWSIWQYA
Procedure: Human 5-HT3A receptor cDNA was linearized using restriction enzyme XhoI. In vitro transcription was performed using an mMESSAGE mMACHINE T7 Transcription Kit (Thermo Fisher Scientific, Waltham, MA, USA). The final mRNA product was dissolved in 1X Diethyl Pyrocarbonate (RNase-free water) at a final concentration of 1 μg/μL and kept in a deep-freezer at −80 °C until used.
Xenopus oocytes were used in this study as cells for expression of human 5-HT3A receptor. All female frogs used in this experiment were obtained from the Korean Xenopus Resource Center for Research (KXRCR000001). […] Isolated oocytes were incubated with ND96 incubation buffer (96 mM NaCl, 2 mM KCl, 1 mM MgCl2, 1.8 mM CaCl2, 5 mM HEPES, 2.5 mM sodium pyruvate, and […], pH 7.4) at 18 °C until the experiment was performed. Human 5-HT3A receptor mRNA was injected into oocytes using a nanoinjector (Drummond Scientific, Broomall, PA, USA) with a mineral-filled 10 μL microdispenser (VWR, Piscataway, NJ, USA).
For the experiment, induced-inward current was converted to digital data with pClamp 10 software (Axon Instruments, Union City, CA, USA). All experiments were performed at room temperature using an oocyte clamp equipped with Digidata. The membrane holding potential was −80 mV.
The voltage relationship experiment for confirming the relationship between induce-inward current and voltage, the voltage was varied from −80 mV to +60 mV using a ramp protocol. Each microelectrode was filled with 3 M KCl having a resistance of 0.2 MΩ. Serotonin and KAE applied in the experiment were diluted in ND96 bath solution (96 mM NaCl, 2 mM KCl, 1 mM MgCl2, 1.8 mM CaCl2, and 5 mM HEPES, pH 7.5) to specified concentration. The rate of application of the reagent was 2 mL per minute. All recording data were analyzed using Clampfit 9.0 (Molecular Devices, San Jose, CA, USA). […]
All presented experiments were performed at least three times for scientific verification. […] Induced-inward current data were analyzed with SigmaPlot 10.0 software (Systat Software, Inc., San Jose, CA, USA).

[3] = biological target: T2, human 5-HT3A receptor W63A mutant (Homo sapiens, UniProt P46098, W85A); assay: Two-electrode voltage clamp, I5-HT inhibition, W63A mutant; assay type: cell-based; details: −80 mV
T2 sequence (P46098 24-478 W85A): T1 sequence (P46098 24-478 E231A) with W62A, A208E
Procedure: (§1) Xenopus oocytes were used in this study as cells for expression of human 5-HT3A receptor. All female frogs used in this experiment were obtained from the Korean Xenopus Resource Center for Research (KXRCR000001). […] Xenopus oocytes were extracted during ice incubation state and isolated as single oocytes using collagenase II (2 mg/mL) in OR2 buffer (82.5 mM NaCl, 2 mM KCl, 1 mM MgCl2, 5 mM HEPES, pH 7.4). Isolated oocytes were incubated with ND96 incubation buffer (96 mM NaCl, 2 mM KCl, 1 mM MgCl2, 1.8 mM CaCl2, 5 mM HEPES, 2.5 mM sodium pyruvate, and 50 mg/mL gentamycin, pH 7.4) at 18 °C until the experiment was performed. Human 5-HT3A receptor mRNA was injected into oocytes using a nanoinjector (Drummond Scientific, Broomall, PA, USA) with a mineral-filled 10 μL microdispenser (VWR, Piscataway, NJ, USA).
(§2) To confirm the KAE activity on the human 5-HT3A receptor, a two-electrode voltage clamp (OC-725C; Warner Instruments, Hamden, CT, USA) with a Digitata 1550A was used. For the experiment, induced-inward current was converted to digital data with pClamp 10 software (Axon Instruments, Union City, CA, USA). All experiments were performed at room temperature using an oocyte clamp equipped with Digidata. The membrane holding potential was −80 mV.
(§3) The voltage relationship experiment for confirming the relationship between induce-inward current and voltage, the voltage was varied from −80 mV to +60 mV using a ramp protocol. […] All recording data were analyzed using Clampfit 9.0 (Molecular Devices, San Jose, CA, USA). […]
(§4) All presented experiments were performed at least three times for scientific verification. […] Induced-inward current data were analyzed with SigmaPlot 10.0 software (Systat Software, Inc., San Jose, CA, USA). […]

[4] = biological target: T3, human 5-HT3A receptor D177A mutant (Homo sapiens, UniProt P46098, D199A); assay: Two-electrode voltage clamp, I5-HT inhibition, D177A mutant; assay type: cell-based; details: −80 mV
T3 sequence (P46098 24-478 D199A): T1 sequence (P46098 24-478 E231A) with D176A, A208E
Procedure: as §1, §2, §3, §4

O=c1c(O)c(-c2ccc(O)cc2)oc2cc(O)cc(O)c12 [KAE, kaempferol]
ability to cross the blood-brain barrier (BBB) [1]: can cross the blood-brain barrier (BBB) | IC50 [2]: 55.1 ± 5.8 µM | Vmax ([2]; E209A, −80 mV): 81.1 ± 9.7% | n (Hill coefficient) ([2]; E209A, −80 mV): 1.7 ± 0.6 | IC50 [3]: 33.7 ± 5.7 µM | Vmax [3]: 76.3 ± 10.7% | n (Hill coefficient) [3]: 1.3 ± 0.5 | n (Hill coefficient) [4]: 1.3 ± 0.2 | IC50 ([4]; Table 1): 13.9 ± 4.2 µM | Vmax ([4]; Table 1): 23.3 ± 13.4%
